Results as given in patent US10111900B2, “β-glucan methods and compositions that affect the tumor microenvironment” (Biothera, Inc., priority 2014, dated 2018).

Tests used:
M2 macrophages = experiment: Flow cytometry of M1/M2 markers on M2 macrophages derived from β-glucan-treated whole blood; type: cell-based, human; settings: for expression of CD163: M2 macrophages, vs vehicle
Procedure: CD14^+ monocytes from human whole blood were enriched using Ficoll gradient and magnetic bead separation. Enriched monocytes (5×10^5 cells per mL) were then cultured in either M1-polarizing (XVivo 10 media (Lonza Group) supplemented with 5% autologous serum and 100 ng/mL recombinant human granulocyte macrophage colony-stimulating factor (rhGM-CSF) (R&D Systems) or M2-polarizing (XVivo 10 media supplemented with 10% autologous serum and 50 ng/mL recombinant human macrophage colony-stimulating factor (rhM-CSF) (R&D Systems) conditions for 6 days. In experiments performed to evaluate the effect of β-glucan, whole blood was first incubated with vehicle (sodium citrate buffer) or 25 μg/mL soluble β-glucan for 2 hours at 37° C. and then the monocytes were isolated and differentiated. Morphology was checked before macrophages were harvested for phenotypic analysis. Culture medium of the day 6 macrophage culture (MCM) was collected, spun down to remove contaminated cell pellet and then frozen down for subsequent cytokine analysis by ELISA or used to setup a co-culture with CD3 & CD28-stimulated CD4 T cells (MCM-CD4 T) for evaluation of either surface markers or CD4 T cell proliferation. The macrophages were used to setup a co-culture with CD3 & CD28- or CD3 only-stimulated CD4 T cells (Mac-CD4 T) on day 6 for evaluation of either surface marker modulation or effect on CD4 T cell proliferation. For Mac-CD4 T cell proliferation study, M1 or M2 macrophages were cultured with CD3 & CD28- or CD3 only-stimulated, CFSE-labeled, autologous CD4 T cells at a 1:10 ratio. T cell proliferation was measured at the end of the experiment (day 9-day 11) by flow cytometry, and results are graphically shown as CFSE-dilution peaks. The assessment of CD3-only stimulated T cells was always done on day 11. Quantitative results were reported as the Division Index (the average number of cell divisions a population underwent) calculated for each of the triplicate wells in each of the culture conditions. Culture supernatants of Mac-CD4 T cell co-cultures were collected for subsequent cytokine analysis.
M1 and M2 macrophages from vehicle- or […] whole blood were prepared as described above. […] In addition, surface expression of CD86 was enhanced as well as both protein and mRNA levels of PD-L1 (FIG. 2B).
Expression of a panel of markers was evaluated by flow cytometry for vehicle- and β-glucan-treated, high binder-derived M1 and M2 macrophages (CD163 was evaluated twice).
CD163 and CD86 were evaluated by flow cytometry for vehicle- and β-glucan-treated, low binder-derived M1 and M2 macrophages.

H1299 NSCLC tumors = H1299 NSCLC tumors in mice, effect on TME; type: in vivo
Procedure: Mice bearing H1299 NSCLC tumors were administered bevacizumab (an anti-angiogenic antibody) (5 mg/kg twice weekly IP for four weeks) alone or in combination with IMPRIME PGG (1.2 mg/mouse twice weekly IV for four weeks) as described above for the other mouse studies. […] Increased iNOS and decreased Arginase 1 are markers indicating an M1, immunostimulatory environment.
In addition, at day 20, post tumor injection, spleens were harvested and single cell suspensions were stained with mouse antibodies and analyzed by FACS. GMFI or frequency was calculated in Flowjo after gating on CD11b+F4/80+CD68+ cells (FIG. 17D-FIG. 17F). FIG. 17D and FIG. 17E show an increase in iNOS and a decrease of Arginase-1, respectively. Spleen cells were also stimulated overnight with 100 ng/ml lipopolysaccharide (LPS) and analyzed for TNF-α production. […] As shown, Arginase-1 decreased and iNOS and CD86 increased, which indicates differentiation of splenic MDSC to M1/N1 macrophage/neutrophils with IMPRIME PGG treatment.
For FIG. 17K-FIG. 17M, tumors were harvested at day 20 and digested with type I collagenase for 1 hour at 37° C. Single cell suspensions were stained with mouse antibodies and analyzed by FACS. GMFI or frequency was calculated in Flowjo after gating on CD11b+ cells. As shown, PD-L1 and iNOS increased while Arginase-1 decreased indicating the shift in tumor-infiltrating myeloid cells to a M1-type phenotype.
Lastly, single cell suspensions of the tumor cells were cultured overnight and supernatants were measured for TGF-β by ELISA.

CD4 and CD8 T cells [1] = experiment: T cell proliferation and activation of PBMCs in plasma from β-glucan-treated whole blood; type: cell-based, human
Procedure: To obtain plasma, whole blood was treated for 6 hours with 25 μg/mL β-glucan or vehicle, spun down and the plasma removed. 50,000 autologous CFSE-labeled PBMCs were cultured in the treated plasma for 3 days in the presence of 50,000 T cell activating CD3/28 beads (DYNABEADS Human T-Activator CD3/CD28 for T Cell Expansion and Activation). At the end of the culture, PBMCs were stained with CD4 and CD8 and T cell proliferation was measured by CFSE dilution.
Next, to show the effect of soluble β-glucan on CD4 and CD8 cell activation, the T cell proliferation assay described above was again carried out. At day 3, however, the cells were stained for markers of activation including Granzyme B production and CD25 upregulation.

CD4 and CD8 T cells [2] = experiment: Allogeneic mixed lymphocyte reaction with mMoDC; type: cell-based, human; settings: β-glucan-treated mMoDC from high binders
CD33+ MDSC = experiment: MDSC in peripheral blood of a case study subject treated with IMPRIME PGG; type: in vivo, human; settings: within hours post-infusion, cycle 8, day 1
Source text: Blood was drawn at various times from a case study subject undergoing treatment with IMPRIME PGG and analyzed for the presence of MDSC. The first blood draw was done pre-infusion, cycle 8, day 1. […] A second blood draw was done post-infusion, cycle 8, day 1. […] The last blood sample was drawn pre-infusion, cycle 8, day 15. The CD33^+ MDSC are again present in the peripheral blood.

[3] = β-glucan-treated M2 macrophages vs vehicle
[4] = spleen, day 20, CD11b+F4/80+CD68+ cells

Substance: β(1,6)-[poly-(1,3)-D-glucopyranosyl]-poly-β(1,3)-D-glucopyranose [β-glucan]
- expression of CD163 (M2 macrophages; high binders): lower expression
- expression of CD163 (M2 macrophages; low binders): remained the same
- mean fluorescence intensity (MFI) of CD163 (M2 macrophages; [3]): downmodulated
- protein and mRNA levels of PD-L1 (M2 macrophages; [3]): enhanced
- surface expression of CD86 (M2 macrophages; [3]): enhanced
- TNF-α production (H1299 NSCLC tumors; spleen cells stimulated overnight with 100 ng/ml LPS): increase
- Arginase-1 (H1299 NSCLC tumors; spleen, CD11b+Gr1+ cells): decreased
- CD86 (H1299 NSCLC tumors; spleen, CD11b+Gr1+ cells): increased
- iNOS (H1299 NSCLC tumors; spleen, CD11b+Gr1+ cells): increased
- Arginase-1 (H1299 NSCLC tumors; [4]): decrease
- iNOS (H1299 NSCLC tumors; [4]): increase
- expression of co-stimulatory marker CD86 (H1299 NSCLC tumors; tumor granulocytic MDSC (CD11b+Lyg6+)): enhanced expression
- CD4 and CD8 proliferation (CD4 and CD8 T cells [1]; plasma from whole blood treated 6 hours with 25 μg/mL β-glucan, vs vehicle, CD3/28 beads, 3 days): significant enhancement
- CD4 and CD8 cell activation (Granzyme B production, CD25 upregulation) (CD4 and CD8 T cells [1]; β-glucan-treated plasma, day 3): enhances
- immunogenicity in allo-MLR (CD4 and CD8 T cell expansion) (CD4 and CD8 T cells [2]; over low binders): increased immunogenicity
- IFN-γ production (CD4 and CD8 T cells [2]; over low binders and vehicle): able to modulate IFN-γ production
- CD33+ MDSC in peripheral blood (CD33+ MDSC): transiently disappear
